According to the CheMixHub ionic liquid set:

Test: xn = mol fraction of the nth substance listed

CC(=O)[O-].CCCCCC[n+]1ccccc1 + O
electrical conductivity [S/m], 101 kPa
Conditions | x1 = 0.8711 | x1 = 0.8907 | x1 = 0.9081 | x1 = 0.9293 | x1 = 0.9699 | x2 = 0.007385
293.15 K | 0.00457 | 0.00421 | 0.00389 | 0.00337 | 0.00259 | 0.00201
298.15 K | 0.0076 | 0.00693 | 0.00609 | 0.00551 | 0.00409 | 0.00282
303.15 K | 0.0127 | 0.0115 | 0.0102 | 0.009 | 0.00656 | 0.005
308.15 K | 0.0171 | 0.0156 | 0.0139 | 0.0122 | 0.00887 | 0.00746
313.15 K | 0.0256 | 0.0229 | 0.0209 | 0.0181 | 0.014 | 0.0112
318.15 K | 0.0371 | 0.0331 | 0.03 | 0.0264 | 0.019 | 0.0155
323.15 K | 0.0501 | 0.0451 | 0.041 | 0.0365 | 0.0271 | 0.0224
328.15 K | 0.067 | 0.0608 | 0.0551 | 0.0496 | 0.0372 | 0.0318
333.15 K | 0.091 | 0.081 | 0.0727 | 0.0639 | 0.0487 | 0.0414
338.15 K | 0.124 | 0.111 | 0.101 | 0.0894 | 0.0694 | 0.0592
343.15 K | 0.163 | 0.148 | 0.135 | 0.119 | 0.0952 | 0.0819

CC(=O)[O-].CCCCC[n+]1ccccc1 + O
101 kPa
Conditions | electrical conductivity [S/m]
293.15 K, x1 = 0.9144 | 0.00606
293.15 K, x1 = 0.9163 | 0.006
293.15 K, x1 = 0.9314 | 0.00537
293.15 K, x1 = 0.948 | 0.00491
293.15 K, x1 = 0.9673 | 0.00428
293.15 K, x2 = 0.002318 | 0.00338
298.15 K, x1 = 0.9163 | 0.0103
298.15 K, x1 = 0.9314 | 0.00935
298.15 K, x1 = 0.948 | 0.00808
298.15 K, x1 = 0.9673 | 0.00703
298.15 K, x2 = 0.002318 | 0.00533
303.15 K, x1 = 0.9314 | 0.0157
303.15 K, x2 = 0.002318 | 0.00815
308.15 K, x1 = 0.9163 | 0.025
308.15 K, x1 = 0.9314 | 0.0221
313.15 K, x1 = 0.9163 | 0.0356
318.15 K, x1 = 0.9163 | 0.0509
318.15 K, x1 = 0.948 | 0.0396
318.15 K, x1 = 0.9673 | 0.0345
318.15 K, x2 = 0.002318 | 0.0267
323.15 K, x1 = 0.9163 | 0.0695
323.15 K, x2 = 0.002318 | 0.0339
328.15 K, x1 = 0.9314 | 0.081
333.15 K, x1 = 0.9144 | 0.13
338.15 K, x1 = 0.9144 | 0.175
338.15 K, x1 = 0.948 | 0.13
343.15 K, x1 = 0.9314 | 0.193

CCCCCCCCn1cc[n+](CCCCCCCC)c1.O=S(=O)([N-]S(=O)(=O)C(F)(F)F)C(F)(F)F + O
100 kPa, x2 = 0.1246
Conditions | viscosity [mPa·s]
303.15 K | 92.9
308.15 K | 73.29
358.15 K | 13.27

CCCC[n+]1ccccc1.O=S(=O)([O-])C(F)(F)F + O
298.15 K, 101 kPa
Conditions | electrical conductivity [S/m]
x1 = 0.000164 | 0.071
x1 = 0.0004107 | 0.156
x1 = 0.0005313 | 0.208
x1 = 0.0007077 | 0.277
x1 = 0.0008912 | 0.323
x1 = 0.001062 | 0.395
x1 = 0.001253 | 0.46
x1 = 0.001353 | 0.501
x1 = 0.001468 | 0.53
x1 = 0.001598 | 0.586
x1 = 0.001845 | 0.651
x1 = 0.001955 | 0.674
x1 = 0.002188 | 0.732
x1 = 0.002246 | 0.746
x1 = 0.002362 | 0.777
x1 = 0.002429 | 0.785
x1 = 0.002452 | 0.795
x1 = 0.002604 | 0.836
x1 = 0.002771 | 0.869
x1 = 0.00288 | 0.909
x1 = 0.003079 | 0.96

CCCC[n+]1ccccc1C.F[B-](F)(F)F + O
298.15 K, 101 kPa
Conditions | electrical conductivity [S/m]
x1 = 0.0002702 | 0.13
x1 = 0.0004161 | 0.188
x1 = 0.0005097 | 0.233
x1 = 0.0007329 | 0.319
x1 = 0.0008948 | 0.368
x1 = 0.001084 | 0.463
x1 = 0.001244 | 0.516
x1 = 0.001427 | 0.588
x1 = 0.001581 | 0.634
x1 = 0.001768 | 0.707
x1 = 0.001923 | 0.76
x1 = 0.002048 | 0.787
x1 = 0.00219 | 0.841
x1 = 0.002294 | 0.878
x1 = 0.002423 | 0.917
x1 = 0.002448 | 0.92
x1 = 0.002543 | 0.96
x1 = 0.002708 | 1
x1 = 0.002791 | 1.03

CCC[n+]1ccccc1.N#C[N-]C#N + O
100 kPa
Conditions | electrical conductivity [S/m] | viscosity [mPa·s]
298.15 K, x1 = 0.9303 | 1.49 | –
298.15 K, x1 = 0.9562 | – | 22.43
298.15 K, x1 = 0.9708 | – | 23.39
303.15 K, x1 = 0.9303 | 1.68 | –
303.15 K, x1 = 0.9442 | 1.64 | –
303.15 K, x1 = 0.9731 | 1.57 | –
313.15 K, x1 = 0.9277 | – | 13.05
313.15 K, x1 = 0.9562 | – | 13.71
313.15 K, x2 = 0.01178 | 2.12 | –
318.15 K, x1 = 0.9442 | 2.6 | –
318.15 K, x1 = 0.9708 | – | 12.47
323.15 K, x1 = 0.9277 | – | 9.72
323.15 K, x1 = 0.9442 | 2.95 | –
323.15 K, x1 = 0.9731 | 2.87 | –
328.15 K, x1 = 0.9417 | – | 8.63
328.15 K, x1 = 0.9562 | – | 8.88
333.15 K, x1 = 0.9442 | 3.81 | –
333.15 K, x1 = 0.9731 | 3.72 | –
338.15 K, x1 = 0.9562 | – | 7.17
338.15 K, x1 = 0.9584 | 4.22 | –

CCCn1cc[n+](C)c1.N[C@@H](CO)C(=O)[O-] + O
100 kPa
Conditions | electrical conductivity [S/m] | viscosity [mPa·s]
298.15 K, x1 = 0.8782 | – | 2215
298.15 K, x1 = 0.9094 | – | 2314
298.15 K, x1 = 0.9257 | – | 2391
303.15 K, x1 = 0.9426 | – | 1547
308.15 K, x1 = 0.8782 | – | 912
313.15 K, x1 = 0.8656 | 0.0804 | –
313.15 K, x1 = 0.8956 | 0.0751 | –
313.15 K, x1 = 0.9115 | 0.0721 | –
318.15 K, x1 = 0.8936 | – | 432
318.15 K, x1 = 0.9094 | – | 438
318.15 K, x1 = 0.9115 | 0.102 | –
318.15 K, x1 = 0.928 | 0.0979 | –
323.15 K, x1 = 0.8809 | 0.15 | –
323.15 K, x1 = 0.8956 | 0.145 | –
323.15 K, x1 = 0.9426 | – | 337
328.15 K, x1 = 0.8809 | 0.199 | –
328.15 K, x1 = 0.9257 | – | 238
333.15 K, x1 = 0.8782 | – | 171
333.15 K, x1 = 0.9115 | 0.248 | –
338.15 K, x1 = 0.9115 | 0.319 | –
338.15 K, x1 = 0.9257 | – | 134.8
338.15 K, x1 = 0.928 | 0.312 | –

C[N+](C)(C)CCO.NCC(=O)[O-] + O
100 kPa
Conditions | viscosity [mPa·s]
298.15 K, x1 = 1 | 501
303.15 K, x1 = 0.6966 | 202
308.15 K, x1 = 0.1 | 4.34
308.15 K, x1 = 0.3996 | 60.2
313.15 K, x1 = 0.3996 | 49
313.15 K, x1 = 0.5004 | 71.1
318.15 K, x1 = 0.1 | 3.35
318.15 K, x1 = 0.3 | 25.63
318.15 K, x1 = 0.3996 | 40.89
318.15 K, x1 = 0.5004 | 56
318.15 K, x1 = 1 | 154.5

C[N+](C)(CCCS(=O)(=O)O)C1CCCCC1.Cc1ccc(S(=O)(=O)[O-])cc1 + O
101 kPa
Conditions | viscosity [mPa·s]
303.15 K, x1 = 1 | 113700
308.15 K, x1 = 0.06028 | 6.925
308.15 K, x1 = 1 | 56930
313.15 K, x1 = 0.01059 | 1.118
313.15 K, x1 = 0.06028 | 6
318.15 K, x1 = 0.01059 | 1.007
318.15 K, x1 = 0.1459 | 38.93
328.15 K, x1 = 0.01059 | 0.8334
328.15 K, x1 = 0.02771 | 1.636
328.15 K, x1 = 0.06028 | 3.944

CCCn1cc[n+](C)c1C.O=S(=O)([N-]S(=O)(=O)C(F)(F)F)C(F)(F)F + O=C1CCCO1
100 kPa, frequency 0.005 MHz
Conditions | electrical conductivity [S/m]
293.15 K, x2 = 0.2006 | 0.28
293.15 K, x2 = 0.6992 | 0.992
293.15 K, x2 = 0.8002 | 1.19
293.15 K, x2 = 0.8999 | 1.2
298.15 K, x2 = 0 | 0.265
303.15 K, x2 = 0.1289 | 0.395
303.15 K, x2 = 0.8508 | 1.5
308.15 K, x2 = 0.2006 | 0.537
308.15 K, x2 = 0.6992 | 1.41
308.15 K, x2 = 0.9495 | 1.11
313.15 K, x2 = 0.6992 | 1.57
313.15 K, x2 = 0.8508 | 1.77
313.15 K, x2 = 0.8999 | 1.68
318.15 K, x2 = 0.4952 | 1.32
323.15 K, x2 = 0.2006 | 0.864
